These results are taken from US12247032B2, “Substituted pyrazolo[1,5-a]pyrimidines as inhibitors of JAK kinases” (Genentech, Inc., priority 2019, dated 2025).

The test system of assay [1] is JAK1 (IL-13-stimulated STAT6 phosphorylation in BEAS-2B cells). Nature of the assay: P-STAT6 BEAS-2B+IL-13 cell assay. It counts as cell-based, human. The note with it: Homo sapiens, BEAS-2B, 1 h, 1 hour compound, IL-13 15 minutes, IC50 by four-parameter fit, read-out: Cellular JAK1 PSTAT6 BEAS2B + IL13. As to the method:
In order to study the effect of JAK1 inhibitors in a cell line that is relevant to the cell biology of human asthma, an IL-13-stimulated STAT6 phosphorylation assay in the human lung bronchial epithelial BEAS-2B cell line was developed.
BEAS-2B cells (ATCC® CRL-9609™) were grown in Bronchial Epithelial Growth Medium (BEGM) (Lonza Catalog No. CC-3170; Walkersville, MD; or PromoCell Catalog No. C-21060; Heidelberg, Germany). Test compound stock solutions (0.5 mM in DMSO) were serially diluted 1:2 in DMSO to generate a 10-point concentration curve (at 500× test concentration), which was further diluted by a 50-fold dilution step in BEGM to generate a 10× concentration curve (in 2% DMSO). Cells were plated at 100,000 cells/well in 200 μL of BEGM in 96-well plates and incubated for 48 hours at 37° C. in a humidified incubator. Medium was aspirated from the cells and replaced with 70 μL of fresh BEGM. Diluted test compound (10 μL; or 2% DMSO in assay medium) was added to the cells, and the plates were incubated for 1 hour at 37° C. in a humidified incubator. Twenty μL of 250 ng/mL human recombinant IL-13 (Bio Techne Catalog No. 213-ILB) was then added to the cells and incubated for 15 minutes at 37° C. Medium was aspirated from the cells and 60 μL of ice-cold 1×cell lysis buffer (Cell Signaling Technologies; Catalog No. 9803S) containing 1 mM PMSF was added to the cells. Assay plates were incubated at −80° C. for at least 1 hour. P-STAT6 was measured by coating GAR plates (MSD; Catalog No. L45RA-1) with rabbit anti-human total STAT6 antibody (Cell Signaling Technologies; Catalog No. 9362S), incubating the cell lysates in the coated plates overnight at 4° C., and then detecting with mouse anti-phospho-STAT6 (Tyr641) Clone 16E12 antibody (Millipore; Catalog No. 05-590, custom labeled by MSD with SULFO-tag) using standard MSD plate processing, washing, and detection protocols. Plates were read on the MESO SECTOR S600.
Data analysis was performed by subtracting negative control values from all wells and determining percent of control using the positive control values; the IC50 was determined with a four-parameter logistic fit model as shown in Equation 4.

For assay [2], the target named is T1, recombinant human JAK1 kinase domain protein (Residues 854-1154) (Homo sapiens, UniProt P23458).
T1 construct: human JAK1 kinase domain protein (Residues 854-1154); purchased Proteros Biostructures GmbH (Martinsried, Germany); host or cells: insect cells
T1 sequence (P23458 854-1154): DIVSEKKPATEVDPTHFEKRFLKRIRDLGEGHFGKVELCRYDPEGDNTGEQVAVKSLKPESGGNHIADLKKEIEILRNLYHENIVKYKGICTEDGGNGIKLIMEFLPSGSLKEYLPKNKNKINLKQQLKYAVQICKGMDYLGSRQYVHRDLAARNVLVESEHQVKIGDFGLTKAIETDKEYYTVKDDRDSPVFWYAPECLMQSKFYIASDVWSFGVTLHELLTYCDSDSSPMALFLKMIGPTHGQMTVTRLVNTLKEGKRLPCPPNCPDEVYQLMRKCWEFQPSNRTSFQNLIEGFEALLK
As to the kind of experiment: JAK1 biochemical assay (microfluidic mobility shift, peptide phosphorylation). The note with it: 25 μM ATP, 1 nM total JAK1; Ki calculated from Ki app (tight-binding, competitive); read-out: Biochem JAK1 Ki. The method, then:
(§1) The in vitro biochemical assays quantify JAK-catalyzed phosphorylation of a synthetic peptide, as detected using a LabChip® EZ Reader II microfluidic mobility shift instrument (PerkinElmer; Waltham, MA). The substrate peptide Y-1B has the sequence 5-FAM-VALVDGYFRLTT-NH2. Y-1B is fluorescently labeled on the N-terminus with 5-FAM (5-carboxyfluorescein) and contains a single tyrosine residue (Y) that can be phosphorylated by JAK activity. The substrate peptide stock is prepared in DMSO at 5 mM. Purified recombinant human JAK1 kinase domain protein (Residues 854-1154) was expressed in insect cells and procured from Proteros Biostructures GmbH (Martinsried, Germany). Recombinant human JAK2 kinase domain protein (Residues 812-1132) was expressed in insect cells and purified at Genentech, Inc. (South San Francisco, CA).
(§2) The kinase reaction mixtures contained 100 mM 4-(2-hydroxyethyl)-1-piperazineethanesulfonic acid (HEPES) buffer (pH 7.2), 10 mM magnesium chloride, 0.015% Brij® 35, 4 mM dithiothreitol, 1.5 μM Y-1B peptide substrate, 25 μM adenosine triphosphate (ATP), 1 nM total JAK1 or 0.2 nM total JAK2, and up to 1000 nM test compound in a final concentration of 2% (volume to volume [v/v]) DMSO. In each titration experiment, test compound was tested in duplicate at each of the twelve concentrations. Blank reactions contained ATP, peptide, and DMSO, but no JAK or test compound, whereas uninhibited control reactions contained ATP, peptide, JAK, and DMSO, but no test compound.
(§3) Peptide plus ATP mixture (24 μL) was added to 1 μL of test compound in DMSO (or DMSO alone). The reactions were initiated by adding 25 μL of JAK enzyme to the inhibitor/peptide/ATP mixture before thoroughly mixing the resultant solution. Reactions were incubated at room temperature (22° C.-23° C.) in a final volume of 50 μL per well in 384-well plates. After a 30-minute incubation, the reactions were stopped by adding 25 μL of 150 mM ethylenediaminetetraacetic acid in 100 mM HEPES buffer (pH 7.2) containing 0.015% Brij 35 to each well.
(§4) In each reaction, the residual Y-1B substrate and the phospho-peptide product generated were separated using the EZ Reader 1 instrument. Electrophoretic separation of molecules of product from molecules of substrate was achieved using downstream and upstream voltages of −500 and −2600 V, respectively, at an operating pressure of −1.3 psi. The 5-FAM group present on both the substrate and product peptides was excited at 488 nm, the fluorescence was detected at 530 nm, and the peak heights were reported.
(§5) The extent (or percent) of conversion of substrate to product was calculated from the corresponding peak heights in the electropherogram using HTS Well Analyzer software, Version 5.2 (PerkinElmer), and the following equation (Equation 1): % conversion=[P[…](S+P)]×100 Equation 1 where S and P represent the peak heights of the substrate and product, respectively. After any baseline signal from blank wells containing no JAK was subtracted from the signal of all test wells, the % conversion data were converted to fractional activity as shown in Equation 2, where νi and νo are the % conversion in the presence and absence of test compound, respectively. The % conversion observed in the uninhibited control reactions containing JAK and DMSO vehicle, but no test compound, was defined to have fractional activity=1 (with no inhibitor present, νi=νo), whereas blank wells with no JAK were defined as having fractional activity=0. Fractional activity was plotted against test compound concentration and the data were fitted using XLfit software (IDBS; Guildford, United Kingdom) to a tight-binding apparent inhibition constant (Ki^app) quadratic equation (see Equation 2) (Williams J W, Morrison J F. The kinetics of reversible tight-binding inhibition. Methods Enymol 1979; 63:437-67), which was used to calculate fractional activity and Ki^app […]

Assay [3] addresses T2, Recombinant human JAK2 kinase domain protein (Residues 812-1132) (Homo sapiens, UniProt O60674).
T2 construct: human JAK2 kinase domain protein (Residues 812-1132); made in house; host or cells: insect cells
As to the kind of experiment: JAK2 biochemical assay (microfluidic mobility shift, peptide phosphorylation). Conditions: 25 μM ATP, 0.2 nM total JAK2; Ki calculated from Ki app (tight-binding, competitive); read-out: Biochem JAK2 Ki. The method, then:
as §1, §2, §3, §4, §5

T2 sequence (O60674 812-1132): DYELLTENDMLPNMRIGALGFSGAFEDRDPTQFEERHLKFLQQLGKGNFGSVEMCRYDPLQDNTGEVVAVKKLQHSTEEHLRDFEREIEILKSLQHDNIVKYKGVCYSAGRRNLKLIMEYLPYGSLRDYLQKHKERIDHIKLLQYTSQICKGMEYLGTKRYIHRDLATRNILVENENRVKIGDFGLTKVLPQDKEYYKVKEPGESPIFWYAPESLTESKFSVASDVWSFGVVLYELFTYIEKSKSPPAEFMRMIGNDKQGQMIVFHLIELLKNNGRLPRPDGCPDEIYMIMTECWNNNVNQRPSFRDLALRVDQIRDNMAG

As to `O=C(Nc1cn(Cc2nnn(C3COC3)n2)nc1-c1cc(Cl)ccc1OC(F)F)c1cnn2cccnc12` [Example 4, N-[3-[5-chloro-2-(difluoromethoxy)phenyl]-1-[[2-(oxetan-3-yl)tetrazol-5-yl]methyl]pyrazol-4-yl]pyrazolo[1,5-a]pyrimidine-3-carboxamide], the IC50 in assay [1] was found to be 6.8 nM. Besides, the Ki is 0.23 nM in assay [2] and 0.12 nM in assay [3].

On to `O=C(Nc1cn(Cc2nnnn2CCN2CCOCC2)nc1-c1cc(Cl)ccc1OC(F)F)c1cnn2cccnc12` [Example 5, N-[3-[5-chloro-2-(difluoromethoxy)phenyl]-1-[[1-(2-morpholinoethyl)tetrazol-5-yl]methyl]pyrazol-4-yl]pyrazolo[1,5-a]pyrimidine-3-carboxamide], for which, in assay [1], the IC50 turned out to be 15 nM. The Ki in assay [2] is 0.4 nM; in assay [3], 0.23 nM.

For the compound `O=C(Nc1cn(Cc2nnn(C3CCN(C4CCOCC4)CC3)n2)nc1-c1cc(Cl)ccc1OC(F)F)c1cnn2cccnc12` [Example 9, N-[3-[5-chloro-2-(difluoromethoxy)phenyl]-1-[[2-(1-tetrahydropyran-4-yl-4-piperidyl)tetrazol-5-yl]methyl]pyrazol-4-yl]pyrazolo[1,5-a]pyrimidine-3-carboxamide], in assay [1], the IC50 came to 13 nM. In addition, the Ki in assay [2] was 0.48 nM; in assay [3] it was 0.24 nM.

As to `O=C(Nc1cn(Cc2nnnn2C2CCNCC2)nc1-c1cc(OC(F)F)ccc1OC(F)F)c1cnn2cccnc12` [Example 24, N-[3-[2,5-bis(difluoromethoxy)phenyl]-1-[[1-(4-piperidyl)tetrazol-5-yl]methyl]pyrazol-4-yl]pyrazolo[1,5-a]pyrimidine-3-carboxamide], the IC50 in assay [1] was found to be 470 nM. Further, the figures for the Ki in assay [2] and in assay [3] were 0.83 nM and 0.91 nM, respectively.

As to `NCCN1CCC(n2nnc(Cn3cc(NC(=O)c4cnn5cccnc45)c(-c4cc(OC(F)F)ccc4OC(F)F)n3)n2)CC1` [Example 25, N-[1-[[2-[1-(2-aminoethyl)-4-piperidyl]tetrazol-5-yl]methyl]-3-[2,5-bis(difluoromethoxy)phenyl]pyrazol-4-yl]pyrazolo[1,5-a]pyrimidine-3-carboxamide], the IC50 in assay [1] was 300 nM. Besides, the results for the Ki in assay [2] and in assay [3] were 0.77 nM and 0.8 nM, respectively.

For `CN1CC(Cn2nnc(Cn3cc(NC(=O)c4cnn5cccnc45)c(-c4cc(OC(F)F)ccc4OC(F)F)n3)n2)C1` [Example 32, N-[3-[2,5-bis(difluoromethoxy)phenyl]-1-[[2-[(1-methylazetidin-3-yl)methyl]tetrazol-5-yl]methyl]pyrazol-4-yl]pyrazolo[1,5-a]pyrimidine-3-carboxamide], the IC50 in assay [1] came out at 22 nM. Besides, the Ki is 0.72 nM in assay [2] and 0.62 nM in assay [3].

Take `CN1CC(Cn2nnnc2Cn2cc(NC(=O)c3cnn4cccnc34)c(-c3cc(OC(F)F)ccc3OC(F)F)n2)C1` [Example 33, N-[3-[2,5-bis(difluoromethoxy)phenyl]-1-[[1-[(1-methylazetidin-3-yl)methyl]tetrazol-5-yl]methyl]pyrazol-4-yl]pyrazolo[1,5-a]pyrimidine-3-carboxamide]: in assay [1], the IC50 worked out at 51 nM. Further, the Ki in assay [2] is 0.55 nM; in assay [3], 0.56 nM.

For `CNCCN1CC(n2nnc(Cn3cc(NC(=O)c4cnn5cccnc45)c(-c4cc(OC(F)F)ccc4OC(F)F)n3)n2)C1` [Example 34, N-[3-[2,5-bis(difluoromethoxy)phenyl]-1-[[2-[1-[2-(methylamino)ethyl]azetidin-3-yl]tetrazol-5-yl]methyl]pyrazol-4-yl]pyrazolo[1,5-a]pyrimidine-3-carboxamide], the IC50 in assay [1] amounted to 180 nM. In addition, the results for the Ki in assay [2] and in assay [3] were 0.4 nM and 0.29 nM, respectively.

Consider `CSc1ccc(OC(F)F)c(-c2nn(Cc3nnn(CCN)n3)cc2NC(=O)c2cnn3cccnc23)c1` [Example 35, N-[1-[[2-(2-aminoethyl)tetrazol-5-yl]methyl]-3-[2-(difluoromethoxy)-5-methylsulfanyl-phenyl]pyrazol-4-yl]pyrazolo[1,5-a]pyrimidine-3-carboxamide], for which the IC50 in assay [1] was 13 nM. For the same compound, the Ki in assay [2] is 0.37 nM; in assay [3] it was 0.18 nM.

Turning to `CSc1ccc(OC(F)F)c(-c2nn(Cc3nnn(CCN(C)C)n3)cc2NC(=O)c2cnn3cccnc23)c1` [Example 36, N-[3-[2-(difluoromethoxy)-5-methylsulfanyl-phenyl]-1-[[2-[2-(dimethylamino)ethyl]tetrazol-5-yl]methyl]pyrazol-4-yl]pyrazolo[1,5-a]pyrimidine-3-carboxamide], the IC50 in assay [1] is 17 nM. For the same compound, the Ki in assay [2] is 0.37 nM; in assay [3] it was 0.22 nM.

In the case of `CN1CCN(CCn2nnc(Cn3cc(NC(=O)c4cnn5cccnc45)c(-c4cc(Cl)ccc4OC(F)F)n3)n2)CC1` [Example 39, N-[3-[5-chloro-2-(difluoromethoxy)phenyl]-1-[[2-[2-(4-methylpiperazin-1-yl)ethyl]tetrazol-5-yl]methyl]pyrazol-4-yl]pyrazolo[1,5-a]pyrimidine-3-carboxamide], in assay [1], the IC50 was 36 nM. The Ki in assay [2] is 1.3 nM; in assay [3], 0.69 nM.
